Results published in patent US20150224202A1, “FORMULATIONS AND USES FOR MICROPARTICLE DELIVERY OF ZINC PROTOPORPHYRINS” (priority 2014, published 2015).

Experiments:
[1] = tested on: newborn rhesus monkeys; experiment: Hemolytic jaundice model, newborn rhesus monkeys treated with heat-damaged erythrocytes; assay type: in vivo, rhesus monkey
Description: However, ZnPP has been troublesome to maintain in solution and is not orally absorbed, requiring parenteral administration.

[2] = tested on: 3-day-old mouse pups; experiment: Effect of light exposure on metalloporphyrin-treated newborn mice (chemical toxicity and phototoxicity); details: for chemical toxicity / phototoxicity, summary: 3.75 to 30.0 μmol/kg BW IP; for LD50 (50% lethal dose), exposed to light: fluorescent light (2 cool white, 1 blue tube) 3 hours
Method: FIG. 2 includes three panels ((A), (B), and (C)), showing the experimental setup for phototoxicity studies. 3-day-old pups (magnified in panel (A)) were given vehicle or Mp IP at doses ranging from 3.75 to 30 μmol/kg body weight (BW) and then exposed for 3 hours to fluorescent light consisting of 2 cool white and 1 blue tubes (as shown in panel (B)) emitting an irradiance of 35.0±1.0 μW/cm^2/nm as measured by a BiliBlanket II Meter (as depicted in panel (C)).
Effect of light exposure on metalloporphyrin-treated newborn mice. […] Pups were either kept in the dark (controls) or exposed to fluorescent light composed of two cool white tubes (F20T12cW) and one blue (TL20W/52) tube for 3 hours (FIG. 2).

[3] = tested on: heme oxygenase (HO); experiment: HO activity inhibition in ZnBG-treated 3-day-old pups (FIG. 3); assay type: in vivo, mouse
[4] = after exposure to fluorescent light

| Compound | tissue targeting of HO inhibition ([1]; 40 μmol/kg BW SC) | time to reduce carboxyhemoglobin and total bilirubin levels to baseline levels ([1]; 40 μmol/kg BW subcutaneously (SC)) [h] | chemical toxicity / phototoxicity, summary [2] | LD50 (50% lethal dose), exposed to light ([2]; IP, 3-day-old mouse pups) [µmol/kg] | LD50 (50% lethal dose), kept in the dark ([2]; IP, 3-day-old mouse pups, kept in the dark) [µmol/kg] | inhibited HO activity ([3]; 3.75 μmol ZnBG/kg BW) | doses retaining maximal HO inhibitory potency without photosensitizing effects ([3]; FIG. 3) [μmol/kg BW] | lethality under blue LED light ([2]; 30 μmol/kg BW, blue light-emitting diode (LED) light) | chemical toxicity, kept in the dark ([2]; 30 μmol/kg, kept in the dark) | doses at which gross histologic skin changes developed ([2]; 6 days after light exposure) [μmol/kg BW] | aspartate aminotransaminase (AST) levels [2, 4] | body weight after exposure to light [2, 4] | creatine kinase (CK-MB) levels [2, 4] | liver antioxidant capacities [2, 4] |
| --- | --- | --- | --- | --- | --- | --- | --- | --- | --- | --- | --- | --- | --- | --- |
| C=CC1=C(C)c2cc3[n-]c(cc4nc(cc5[n-]c(cc1n2)c(C)c5C=C)C(C)=C4CCC(=O)O)c(CCC(=O)O)c3C.[Zn+2] [ZnPP, Zinc protoporphyrin] | targeted to the liver and spleen, without affecting the kidney or brain | ≤ 24 | – | – | – | – | – | – | – | – | – | – | – | – |
| chromium mesoporphyrin [CrMP] | – | – | has a chemical toxicity, but no phototoxicity | 23.0 | 21.5 | – | – | – | – | – | – | – | – | – |
| zinc bis glycol porphyrin [ZnBG] | – | – | has no chemical toxicity, but a phototoxicity that is dependent on the light source | 19.5 | – | up to 75% | < 3.75 | no lethality was observed | did not show any chemical toxicity | > 7.5 | increases | significant weight loss | increases | decreases |
